Test results from patent US12398120B2, “Substituted hydantoinamides as ADAMTS7 antagonists” (BAYER AKTIENGESELLSCHAFT, priority 2019, dated 2025).

Molecular target: ADAMTS4 (Homo sapiens (Human), UniProt O75173)
Experiment: Selectivity assay for ADAMTS-7 modulators: ADAMTS4 (FRET substrate)
Assay type: biochemical
Details: ADAMTS4 (R&D 4307-AD) 50 nM, substrate Dabcyl-EEVKAKVQPY-Glu(Edans)-NH2 1 μM, 120 min, 32° C.
Summary of the method: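 Human ADAMTS4 with compound in DMSO, or DMSO control; reaction started by adding FRET substrate in reaction buffer. Fluorescence increase measured at substrate-specific wavelengths. IC50 derived from % inhibition of enzyme activity versus compound concentration.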

ADAMTS4, sequence (O75173 213-685): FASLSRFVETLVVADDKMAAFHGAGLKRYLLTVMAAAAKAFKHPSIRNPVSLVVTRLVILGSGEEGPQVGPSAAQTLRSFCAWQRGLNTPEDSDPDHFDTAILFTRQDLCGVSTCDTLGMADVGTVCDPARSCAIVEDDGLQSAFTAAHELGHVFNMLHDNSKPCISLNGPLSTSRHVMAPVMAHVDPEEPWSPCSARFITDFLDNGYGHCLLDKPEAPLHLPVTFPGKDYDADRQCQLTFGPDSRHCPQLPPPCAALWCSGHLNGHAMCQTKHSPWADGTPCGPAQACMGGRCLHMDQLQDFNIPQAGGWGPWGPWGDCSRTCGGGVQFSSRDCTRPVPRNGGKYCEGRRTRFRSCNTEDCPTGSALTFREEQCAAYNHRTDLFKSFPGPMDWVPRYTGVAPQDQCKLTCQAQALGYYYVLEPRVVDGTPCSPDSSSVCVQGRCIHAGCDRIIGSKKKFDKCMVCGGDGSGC

Row | IC50 | SMILES
1 | 3.9 µM | Cc1ccc(-c2cc(C)ccc2C(=O)NC[C@@]2(C3CC3)NC(=O)NC2=O)cc1 [Example 22, N-{[(4R)-4-Cyclopropyl-2,5-Dioxoimidazolidin-4-Yl]Methyl}-4′,5-Dimethyl[Biphenyl]-2-Carboxamide]
2 | 12.5 µM | O=C1NC(=O)[C@](CNC(=O)c2ccc(F)c(F)c2-c2ccc(C(F)(F)F)cc2)(C2CC2)N1 [Example 23, N-{[(4R)-4-Cyclopropyl-2,5-Dioxoimidazolidin-4-Yl]Methyl}-5,6-Difluoro-4′-(Trifluoromethyl)[Biphenyl]-2-Carboxamide]
3 | > 50 µM | CC1CCC1C1(CNC(=O)c2ccccc2-c2ccc(C(F)(F)F)cc2)NC(=O)NC1=O (stereo not drawn) [Example 26, Ent-N-{[4-(2-Methylcyclobutyl)-2,5-Dioxoimidazolidin-4-Yl]Methyl}-4′-(Trifluoromethyl)[Biphenyl]-2-Carboxamide]
4 | 9.1 µM | Cc1ncsc1C1(CNC(=O)c2ccccc2-c2ccc(C(F)(F)F)cc2)NC(=O)NC1=O (stereo not drawn) [Example 27, Ent-N-{[4-(4-Methyl-1,3-Thiazol-5-Yl)-2,5-Dioxoimidazolidin-4-Yl]Methyl}-4′-(Trifluoromethyl)[Biphenyl]-2-Carboxamide]
5 | 11 µM | O=C1NC(=O)C(CNC(=O)c2ccccc2-c2ccc(C(F)(F)F)cc2)(c2ccnn2CC(F)(F)F)N1 (stereo not drawn) [Example 28, Ent-N-({2,5-Dioxo-4-[1-(2,2,2-Trifluoroethyl)-1H-Pyrazol-5-Yl]Imidazolidin-4-Yl}Methyl)-4′-(Trifluoromethyl)[Biphenyl]-2-Carboxamide]
6 | 6.5 µM | Cc1c(C2(CNC(=O)c3ccccc3-c3ccc(C(F)(F)F)cc3)NC(=O)NC2=O)cnn1C (stereo not drawn) [Example 31, Ent-N-{[4-(1,5-Dimethyl-1H-Pyrazol-4-Yl)-2,5-Dioxoimidazolidin-4-Yl]Methyl}-4′-(Trifluoromethyl)[Biphenyl]-2-Carboxamide]
7 | 8.7 µM | Cc1ncsc1C1(CNC(=O)c2ccccc2-c2ccc(C(F)(F)F)nc2)NC(=O)NC1=O (stereo not drawn) [Example 37, Ent-N-{[4-(4-Methyl-1,3-Thiazol-5-Yl)-2,5-Dioxoimidazolidin-4-Yl]Methyl}-2-[6-(Trifluoromethyl)Pyridin-3-Yl]Benzamide]
8 | 21 µM | CCC(C)C1(CNC(=O)c2ccccc2-c2ccc(C(F)(F)F)cc2)NC(=O)NC1=O (centres unmarked) [Example 38, Diamix-N-[(4-Sec-Butyl-2,5-Dioxoimidazolidin-4-Yl)Methyl]-4′-(Trifluoromethyl)[Biphenyl]-2-Carboxamide]
9 | 4.8 µM | O=C1NC(=O)C(CNC(=O)c2ccccc2-c2ccc(C(F)(F)F)cc2)(c2ccnn2C2CC2)N1 (stereo not drawn) [Example 46, Ent-N-{[4-(1-Cyclopropyl-1H-Pyrazol-5-Yl)-2,5-Dioxoimidazolidin-4-Yl]Methyl}-4′-(Trifluoromethyl)[Biphenyl]-2-Carboxamide]
10 | 4.15 µM | Cc1nc(C)c(C2(CNC(=O)c3ccccc3-c3ccc(C(F)(F)F)cc3)NC(=O)NC2=O)s1 (stereo not drawn) [Example 47, Ent-N-{[4-(2,4-Dimethyl-1,3-Thiazol-5-Yl)-2,5-Dioxoimidazolidin-4-Yl]Methyl}-4′-(Trifluoromethyl)[Biphenyl]-2-Carboxamide]
11 | 25 µM | CCC(C)C1(CNC(=O)c2ccccc2-c2ccc(C(F)(F)F)nc2)NC(=O)NC1=O (centres unmarked) [Example 51, Diamix-N-[(4-Sec-Butyl-2,5-Dioxoimidazolidin-4-Yl)Methyl]-2-[6-(Trifluoromethyl)Pyridin-3-Yl]Benzamide]
12 | 32 µM | O=C1NC(=O)[C@](CNC(=O)c2ccccc2-c2ccc(Cl)cc2F)(C2CC2)N1 [Example 54, 4′-Chloro-N-{[(4R)-4-Cyclopropyl-2,5-Dioxoimidazolidin-4-Yl]Methyl}-2′-Fluoro[Biphenyl]-2-Carboxamide]
13 | 31 µM | O=C1NC(=O)[C@](CNC(=O)c2ccncc2-c2ccc(Cl)cc2)(C2CC2)N1 [Example 56, 3-(4-Chlorophenyl)-N-{[(4R)-4-Cyclopropyl-2,5-Dioxoimidazolidin-4-Yl]Methyl}Isonicotinamide]
14 | 12 µM | Cc1nscc1C1(CNC(=O)c2ccccc2-c2ccc(C(F)(F)F)nc2)NC(=O)NC1=O (stereo not drawn) [Example 64, Ent-N-{[4-(3-Methyl-1,2-Thiazol-4-Yl)-2,5-Dioxoimidazolidin-4-Yl]Methyl}-2-[6-(Trifluoromethyl)Pyridin-3-Yl]Benzamide]
15 | 20 µM | Cc1nocc1C1(CNC(=O)c2ccccc2-c2ccc(C(F)(F)F)nc2)NC(=O)NC1=O (stereo not drawn) [Example 65, Ent-N-{[4-(3-Methyl-1,2-Oxazol-4-Yl)-2,5-Dioxoimidazolidin-4-Yl]Methyl}-2-[6-(Trifluoromethyl)Pyridin-3-Yl]Benzamide]
16 | 8.2 µM | O=C1NC(=O)C(CNC(=O)c2ccccc2-c2ccc(C(F)(F)F)nc2)(c2ccnn2C2CC2)N1 (stereo not drawn) [Example 66, Ent-N-{[4-(1-Cyclopropyl-1H-Pyrazol-5-Yl)-2,5-Dioxoimidazolidin-4-Yl]Methyl}-2-[6-(Trifluoromethyl)Pyridin-3-Yl]Benzamide]

Row | IC50 | SMILES
17 | 11 µM | Cc1nocc1C1(CNC(=O)c2ccccc2-c2ccc(C(F)(F)F)cc2)NC(=O)NC1=O (stereo not drawn) [Example 68, Ent-N-{[4-(3-Methyl-1,2-Oxazol-4-Yl)-2,5-Dioxoimidazolidin-4-Yl]Methyl}-4′-(Trifluoromethyl)[Biphenyl]-2-Carboxamide]
18 | 4.9 µM | Cc1conc1C1(CNC(=O)c2ccccc2-c2ccc(C(F)(F)F)cc2)NC(=O)NC1=O (stereo not drawn) [Example 69, Ent-N-{[4-(4-Methyl-1,2-Oxazol-3-Yl)-2,5-Dioxoimidazolidin-4-Yl]Methyl}-4′-(Trifluoromethyl)[Biphenyl]-2-Carboxamide]
19 | 4.5 µM | Cc1cn(C)nc1C1(CNC(=O)c2ccccc2-c2ccc(C(F)(F)F)cc2)NC(=O)NC1=O (stereo not drawn) [Example 70, Ent-N-{[4-(1,4-Dimethyl-1H-Pyrazol-3-Yl)-2,5-Dioxoimidazolidin-4-Yl]Methyl}-4′-(Trifluoromethyl)[Biphenyl]-2-Carboxamide]
20 | 16.3 µM | CC(C)(C)C1(CNC(=O)c2ccccc2-c2ccc(C(F)(F)F)cc2)NC(=O)NC1=O (stereo not drawn) [Example 71, Ent-N-[(4-Tert-Butyl-2,5-Dioxoimidazolidin-4-Yl)Methyl]-4′-(Trifluoromethyl)[Biphenyl]-2-Carboxamide]
21 | 6.9 µM | Cc1cn(C)nc1C1(CNC(=O)c2ccccc2-c2ccc(C(F)(F)F)nc2)NC(=O)NC1=O (stereo not drawn) [Example 72, Ent-N-{[4-(1,4-Dimethyl-1H-Pyrazol-3-Yl)-2,5-Dioxoimidazolidin-4-Yl]Methyl}-2-[6-(Trifluoromethyl)Pyridin-3-Yl]Benzamide]
22 | 20 µM | Cc1nonc1C1(CNC(=O)c2ccccc2-c2ccc(C(F)(F)F)cc2)NC(=O)NC1=O (stereo not drawn) [Example 73, Ent-N-{[4-(4-Methyl-1,2,5-Oxadiazol-3-Yl)-2,5-Dioxoimidazolidin-4-Yl]Methyl}-4′-(Trifluoromethyl)[Biphenyl]-2-Carboxamide]
23 | 5.2 µM | Cc1nc(C)c(C2(CNC(=O)c3ccccc3-c3ccc(C(F)(F)F)nc3)NC(=O)NC2=O)s1 (stereo not drawn) [Example 74, Ent-N-{[4-(2,4-Dimethyl-1,3-Thiazol-5-Yl)-2,5-Dioxoimidazolidin-4-Yl]Methyl}-2-[6-(Trifluoromethyl)Pyridin-3-Yl]Benzamide]
24 | 10 µM | O=C1NC(=O)[C@](CNC(=O)c2ccc(Cl)cc2-c2ccc(C(F)(F)F)nc2)(C2CC2)N1 [Example 75, 4-Chloro-N-{[(4R)-4-Cyclopropyl-2,5-Dioxoimidazolidin-4-Yl]Methyl}-2-[6-(Trifluoromethyl)Pyridin-3-Yl]Benzamide]
25 | 14 µM | O=C1NC(=O)[C@](CNC(=O)c2ccc(F)c(F)c2-c2ccc(C(F)(F)F)nc2)(C2CC2)N1 [Example 76, N-{[(4R)-4-Cyclopropyl-2,5-Dioxoimidazolidin-4-Yl]Methyl}-3,4-Difluoro-2-[6-(Trifluoromethyl)Pyridin-3-Yl]Benzamide]
26 | 14 µM | Cc1cnoc1C1(CNC(=O)c2ccccc2-c2ccc(C(F)(F)F)nc2)NC(=O)NC1=O (stereo not drawn) [Example 78, Ent-N-{[4-(4-Methyl-1,2-Oxazol-5-Yl)-2,5-Dioxoimidazolidin-4-Yl]Methyl}-2-[6-(Trifluoromethyl)Pyridin-3-Yl]Benzamide]
27 | 5.73 µM | CCn1nccc1C1(CNC(=O)c2ccccc2-c2ccc(C(F)(F)F)cc2)NC(=O)NC1=O (stereo not drawn) [Example 80, Ent-N-{[4-(1-Ethyl-1H-Pyrazol-5-Yl)-2,5-Dioxoimidazolidin-4-Yl]Methyl}-4′-(Trifluoromethyl)[Biphenyl]-2-Carboxamide]
28 | > 50 µM | O=C1NC(=O)[C@](CNC(=O)c2cccnc2-c2ccc(C(F)(F)F)cc2)(C2CC2)N1 [Example 82, N-{[(4R)-4-Cyclopropyl-2,5-Dioxoimidazolidin-4-Yl]Methyl}-2-[4-(Trifluoromethyl)Phenyl]Pyridine-3-Carboxamide]
29 | 36 µM | O=C1NC(=O)[C@](CNC(=O)c2ccncc2-c2ccc(C(F)(F)F)cc2)(C2CC2)N1 [Example 83, N-{[(4R)-4-Cyclopropyl-2,5-Dioxoimidazolidin-4-Yl]Methyl}-3-[4-(Trifluoromethyl)Phenyl]Pyridine-4-Carboxamide]
30 | 50 µM | O=C1NC(=O)[C@](CNC(=O)c2ccccc2-c2ccc(C(F)(F)F)cn2)(C2CC2)N1 [Example 84, N-{[(4R)-4-Cyclopropyl-2,5-Dioxoimidazolidin-4-Yl]Methyl}-2-[5-(Trifluoromethyl)Pyridin-2-Yl]Benzamide]
31 | 13 µM | Cc1nsnc1C1(CNC(=O)c2ccccc2-c2ccc(C(F)(F)F)cc2)NC(=O)NC1=O (stereo not drawn) [Example 85, Ent-N-{[4-(4-Methyl-1,2,5-Thiadiazol-3-Yl)-2,5-Dioxoimidazolidin-4-Yl]Methyl}-4′-(Trifluoromethyl)[Biphenyl]-2-Carboxamide]
32 | 7.6 µM | Cc1nscc1C1(CNC(=O)c2ccccc2-c2ccc(C(F)(F)F)cc2)NC(=O)NC1=O (stereo not drawn) [Example 86, Ent-N-{[4-(3-Methyl-1,2-Thiazol-4-Yl)-2,5-Dioxoimidazolidin-4-Yl]Methyl}-4′-(Trifluoromethyl)[Biphenyl]-2-Carboxamide]
